Source: patent publication US20240279215A1 (Cytokinetics, Incorporated, priority 2022, published 2024)

Molecular target: human NAMPT (Homo sapiens (Human), UniProt P43490)
Assay: NMN fluorescence biochemical assay (human recombinant NAMPT enzyme assay)
Description: Compounds described herein were assayed for their ability to stimulate the synthesis of nicotinamide mononucleotide (NMN) by the enzyme NAMPT. The human recombinant enzyme assay measures the activation of the enzyme activity by compounds using recombinant enzyme and substrates in a buffered cell-free system. The assay conditions closely mimic cellular environments. Dose responses were measured using an assay to detect the formation of nicotinamide mono-nucleotide. All experiments were performed in the 384-well format. Generally, 0.5 μL of DMSO containing varying concentrations of the test compound was mixed with 10 μL of the enzyme reagent solution. Enzyme reactions were initiated with the addition of […] containing the substrates. The final assay conditions were as follows: 6 nM human NAMPT, 2.5 mM ATP, 20 μM PRPP and 150 μM nicotinamide in 50 mM HEPES, pH 7.2, 1 mM DTT, 1 mM CHAPS 50 mM NaCl, 100 mM MgCl2. Following an incubation of 60 min at ambient temperature, 10 μL of 20% acetophenone in DMSO was added, followed by 10 μL of 2 M KOH and 40 μL of formic acid. The plates were read for fluorescence (Excitation/Emission=355 nm/460 nm) using an EnVision plate reader after 40 mins of incubation at ambient temperature.

Chain of human NAMPT (P43490 whole entry): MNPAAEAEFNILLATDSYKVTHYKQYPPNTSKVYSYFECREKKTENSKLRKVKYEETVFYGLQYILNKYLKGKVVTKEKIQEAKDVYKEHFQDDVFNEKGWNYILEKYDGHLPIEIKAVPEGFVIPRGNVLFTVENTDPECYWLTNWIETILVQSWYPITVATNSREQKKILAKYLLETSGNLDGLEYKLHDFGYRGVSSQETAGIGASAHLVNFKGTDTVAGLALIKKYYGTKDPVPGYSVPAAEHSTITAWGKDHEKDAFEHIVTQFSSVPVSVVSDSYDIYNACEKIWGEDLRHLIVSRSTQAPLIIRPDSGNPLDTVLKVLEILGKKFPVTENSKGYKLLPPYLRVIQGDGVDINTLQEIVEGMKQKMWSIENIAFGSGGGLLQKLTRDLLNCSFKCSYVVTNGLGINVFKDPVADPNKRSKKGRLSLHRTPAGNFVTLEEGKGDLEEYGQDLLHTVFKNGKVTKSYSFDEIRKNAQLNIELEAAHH

SMILES | AC1.4 Human [µM] | EC50 [µM]
COc1ccc(COC(=O)Nc2ccc(CNC(=O)c3ccc(C)nc3)cc2)cc1 [Compound 53, (4-methoxyphenyl)methyl N-(4-{[(6-methylpyridin-3-yl)formamido]methyl}phenyl)carbamate] | 0.51 | 5.89
CN1CC(=O)NC[C@@H]1c1ccc(NC(=O)OCc2ccc(Cl)cc2)cc1 [Compound 54, 4-chlorobenzyl (S)-(4-(1-methyl-5-oxopiperazin-2-yl)phenyl)carbamate] | 0.51 | 8.45
CN(Cc1ccc(NC(=O)OCc2ccc(Cl)cc2)cc1)C(=O)c1c(F)cncc1F [Compound 55, (4-chlorophenyl)methyl N-(4-{[1-(3,5-difluoropyridin-4-yl)-N-methylformamido]methyl}phenyl)carbamate] | 0.51 | 1.82
COCCn1nccc1C(=O)N[C@@H](C)c1ccc(NC(=O)OCc2ccc(Cl)cc2)cc1 [Compound 56, (4-chlorophenyl)methyl N-{4-[(1S)-1-{[2-(2-methoxyethyl)pyrazol-3-yl]formamido}ethyl]phenyl}carbamate] | 0.53 | 2.8
C[C@H](NC(=O)c1c(F)cncc1F)c1ccc(NC(=O)OCc2ccc(Cl)cc2)cc1 [Compound 57, (4-chlorophenyl)methyl N-{4-[(1S)-1-[(3,5-difluoropyridin-4-yl)formamido]ethyl]phenyl}carbamate] | 0.54 | 1.29
CN(C)C(=O)N1CCC(Cc2ccc(NC(=O)OCc3ccc(Cl)cc3)cc2)CC1 [Compound 58, 4-chlorobenzyl (4-((1-(dimethylcarbamoyl)piperidin-4-yl)methyl)phenyl)carbamate] | 0.55 | 1.73
Cc1ccc(C(=O)N[C@@H](C)c2ccc(NC(=O)OCc3ccc(Cl)cc3)cc2)cn1 [Compound 60, 4-chlorobenzyl (S)-(4-(1-(6-methylnicotinamido)ethyl)phenyl)carbamate] | 0.57 | 1.91
COc1ccc(COC(=O)Nc2ccc(NS(=O)(=O)Cc3ccccc3)cc2)cc1 [Compound 61, 4-methoxybenzyl (4-((phenylmethyl)sulfonamido)phenyl)carbamate] | 0.57 | 2.62
NC(=O)N1CCC(Cc2ccc(NC(=O)OCc3ccc(Cl)cc3)cc2)CC1 [Compound 62, 4-chlorobenzyl (4-((1-carbamoylpiperidin-4-yl)methyl)phenyl)carbamate] | 0.57 | 2.64
O=C(Nc1ccc(CN2C(=O)CC3CC32)cc1)OCc1ccc(Cl)cc1 (centres unmarked) [Compound 63, (4-chlorophenyl)methyl N-[4-({3-oxo-2-azabicyclo[3.1.0]hexan-2-yl}methyl)phenyl]carbamate] | 0.57 | 4.93
CO[C@H]1CC[C@H](NC(=O)Cc2ccc(NC(=O)OCc3ccc(Cl)cc3)cc2)CC1 [Compound 64, (4-chlorophenyl)methyl N-[4-({[(1R,4R)-4-methoxycyclohexyl]carbamoyl}methyl)phenyl]carbamate] | 0.58 | 4.22
Cc1ccc(Cc2ccc(NC(=O)OCc3cn[nH]c3)cc2)cn1 [Compound 65, (1H-pyrazol-4-yl)methyl (4-((6-methylpyridin-3-yl)methyl)phenyl)carbamate] | 0.58 | 37.1
Cc1ccc(C(=O)NCc2ccc(NC(=O)OCc3cncs3)cc2)cn1 [Compound 66, thiazol-5-ylmethyl (4-((6-methylnicotinamido)methyl)phenyl)carbamate] | 0.59 | 5.12
COc1ccc(COC(=O)Nc2ccc(CC3CCN(C4COC4)CC3)cc2)cc1 [Compound 67, 4-methoxybenzyl (4-((1-(oxetan-3-yl)piperidin-4-yl)methyl)phenyl)carbamate] | 0.59 | 21.3
C[C@H](NC(=O)[C@@H]1C[C@@H]2[C@H](C1)C2(F)F)c1ccc(NC(=O)OCc2cnco2)cc1 [Compound 68, 1,3-oxazol-5-ylmethyl N-{4-[(1S)-1-{[(1R,3s,5S)-6,6-difluorobicyclo[3.1.0]hexan-3-yl]formamido}ethyl]phenyl}carbamate] | 0.59 | 11.1
CN(Cc1ccc(NC(=O)OCc2ccc(Cl)cc2)cc1)C(=O)c1cn[nH]c1F [Compound 69, (4-chlorophenyl)methyl N-(4-{[1-(3-fluoro-2H-pyrazol-4-yl)-N-methylformamido]methyl}phenyl)carbamate] | 0.59 | 3.07
CN(Cc1ccc(NC(=O)OCc2ccc(Cl)cc2)cc1)C(=O)c1n[nH]cc1F [Compound 71, (4-chlorophenyl)methyl N-(4-{[1-(4-fluoro-1H-pyrazol-3-yl)-N-methylformamido]methyl}phenyl)carbamate] | 0.61 | 2.51
COC1CCN(C(=O)N[C@@H](C)c2ccc(NC(=O)OCc3ccc(Cl)cc3)cc2)CC1 [Compound 72, 4-chlorobenzyl (S)-(4-(1-(4-methoxypiperidine-1-carboxamido)ethyl)phenyl)carbamate] | 0.62 | 5.27
O=C(Nc1ccc(CN2CCN(c3ncccn3)CC2)cc1)OCc1ccc(Cl)cc1 [Compound 73, 4-chlorobenzyl (4-((4-(pyrimidin-2-yl)piperazin-1-yl)methyl)phenyl)carbamate] | 0.62 | 1.76
CN(Cc1ccc(NC(=O)OCc2ccc(Cl)cc2)cc1)C(=O)c1ccnn1C1CCC1 [Compound 74, (4-chlorophenyl)methyl N-(4-{[1-(2-cyclobutylpyrazol-3-yl)-N-methylformamido]methyl}phenyl)carbamate] | 0.64 | 1.42
C[C@H](NC(=O)C1CC(F)(F)C1)c1ccc(NC(=O)OCc2cnco2)cc1 [Compound 75, 1,3-oxazol-5-ylmethyl N-{4-[(1S)-1-[(3,3-difluorocyclobutyl)formamido]ethyl]phenyl}carbamate] | 0.64 | 26.3
CCc1ccc(C(=O)N[C@@H](C)c2ccc(NC(=O)OCc3ccc(Cl)cc3)cc2)cn1 [Compound 76, (4-chlorophenyl)methyl N-{4-[(1S)-1-[(6-ethylpyridin-3-yl)formamido]ethyl]phenyl}carbamate] | 0.64 | 0.89
COCCn1nccc1C(=O)N(C)Cc1ccc(NC(=O)OCc2ccc(Cl)cc2)cc1 [Compound 77, (4-chlorophenyl)methyl N-[4-({1-[2-(2-methoxyethyl)pyrazol-3-yl]-N-methylformamido}methyl)phenyl]carbamate] | 0.65 | 1.67
O=C(Nc1ccc(CNC(=O)c2ccncc2F)cc1)OCc1ccc(Cl)cc1 [Compound 78, (4-chlorophenyl)methyl N-(4-{[(3-fluoropyridin-4-yl)formamido]methyl}phenyl)carbamate] | 0.65 | 7.44
CC(C)(C)OC(=O)N1CCC(Cc2ccc(NC(=O)OCc3cnco3)cc2)CC1 [Compound 79, tert-butyl 4-(4-(((oxazol-5-ylmethoxy)carbonyl)ami-no)benzyl)piperidine-1-carboxylate] | 0.66 | 23.6
